Data set [1] addresses Vascular endothelial growth factor receptor 2 (Homo sapiens, UniProt P35968). Kind of data set: Inhibition of GST-fused recombinant VGFR2 catalytic domain expressed in baculovirus-infected Sf9 cells after 10 mins by DELFIA assay.
The target in data set [2] is T1, Hepatocyte growth factor receptor (Homo sapiens, UniProt P08581). The following applies: 293t.
Description: Inhibition of TPR-fused Met phosphorylation expressed in human 293T cells by ELISA
For data set [3], the target named is T1, Hepatocyte growth factor receptor. Kind of data set: biochemical.
Description: Inhibition of GST-fused recombinant c-Met catalytic domain expressed in baculovirus-infected Trichoplusia ni Hi5 cells after 30 mins by DELFIA assay
Data set [4] can be described thus: Half life in rat at 2.17 to 2.86 mg/kg, iv. To be noted: in vivo. The arrangement: dose 2.17-2.86 mg/kg, route intravenous. It is filed as ADME, organism-based.
Data set [5] is described as follows: Bioavailability in rat at 4.28 to 4.98 mg/kg, po. The class given is ADME, organism-based. The following applies: in vivo.
Data set [6] has as its target Macrophage-stimulating protein receptor (Homo sapiens) (UniProt Q04912). Kind of data set: Inhibition of Ron at 100 nM.
For data set [7], the target named is Angiopoietin-1 receptor (Homo sapiens) (UniProt Q02763). Kind of data set: Inhibition of Tie2 at 100 nM.
The target of data set [8] is Receptor-type tyrosine-protein kinase FLT3 (Homo sapiens) (UniProt P36888). Kind of data set: Inhibition of FLT3 at 100 nM.
Data set [9] has as its target T2, Aurora kinase A (Homo sapiens) (UniProt O14965).
T2 sequence (whole entry): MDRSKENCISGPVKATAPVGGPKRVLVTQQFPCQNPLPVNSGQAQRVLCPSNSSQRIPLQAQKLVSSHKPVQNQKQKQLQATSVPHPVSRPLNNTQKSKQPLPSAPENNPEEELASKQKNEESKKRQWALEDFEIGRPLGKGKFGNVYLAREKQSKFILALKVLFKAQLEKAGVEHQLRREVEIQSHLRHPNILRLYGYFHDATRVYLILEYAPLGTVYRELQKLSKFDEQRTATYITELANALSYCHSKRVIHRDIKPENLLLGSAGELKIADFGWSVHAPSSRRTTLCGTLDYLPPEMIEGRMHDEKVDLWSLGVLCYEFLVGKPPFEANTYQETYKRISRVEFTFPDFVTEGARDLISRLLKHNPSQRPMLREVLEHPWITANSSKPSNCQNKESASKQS
Kind of data set: Inhibition of Aurora A at 100 nM.

Data set [10] has as its system MKN-45. Kind of data set: Antitumor activity against human MKN45 cells xenografted in mouse assessed as regression of tumor growth at 40 mg/kg, po administered once daily for 12 days. It is filed as functional, organism-based. The arrangement: dose 40 mg/kg.
Data set [11] deals with Vascular endothelial growth factor receptor 3 (Homo sapiens) (UniProt P35916). Kind of data set: Inhibition of VEGFR3 at 100 nM.
Data set [12] concerns HUVEC. Kind of data set: Inhibition of tubule growth in HUVEC by angiogenesis assay. It is filed as functional, cell-based. The following applies: Homo sapiens.
Data set [13] deals with HUVEC. Kind of data set: Inhibition of VEGF-dependent proliferation in HUVEC. The class given is functional, cell-based. The following applies: Homo sapiens.
A short description of data set [14]: Inhibition of VEGF-dependent ERK phosphorylation.
The subject of data set [15] is HUVEC. Kind of data set: Inhibition of tubule formation in HUVEC assessed as tubule length at 100 nM by angiogenesis assay in presence of VEGF. The class given is functional. The following applies: Homo sapiens.
The test system of data set [16] is MKN-45. Kind of data set: Antiproliferative activity against human MKN45 cells expressing c-Met after 72 hrs by MTT assay. The following applies: MKN-45, 72 h. It is filed as functional, cell-based. In general terms: Formazan colour is commonly taken as a measure of viable cells.
Another data set concerns HOS-TE85. Kind of data set: Antiproliferative activity against human MNNG-HOS cells expressing TPR-fused Met after 72 hrs by MTT assay. It is filed as functional, cell-based. To be noted: HOS-TE85, 72 h.
The next data set relates to HCT-116. Kind of data set: Antiproliferative activity against c-Met-independent human HCT116 cells after 72 hrs by MTT assay. The class given is functional, cell-based. The following applies: HCT-116, 72 h.
For a further data set, the system named is MDA-MB-231. Kind of data set: Antiproliferative activity against c-Met-independent human MDA-MB-231 cells after 72 hrs by MTT assay. The class given is functional, cell-based. The following applies: MDA-MB-231, 72 h.
Data set [17] has as its target Vascular endothelial growth factor receptor 1 (Homo sapiens) (UniProt P17948). Kind of data set: Inhibition of VEGFR1 at 100 nM.

Molecules are shown by their SMILES. Calls of active or inactive are those of the source. No cut-off for these calls is given here. Bounds are passed on as bounds.

In the case of `CCn1cnc(-c2cc3nccc(Oc4ccc(NC(=O)N5CCN(c6ccccc6F)C5=O)cc4F)c3s2)c1`, the concentration for half-maximal inhibition (IC50) in [1] stood at 3 nM; in [2], 100 nM; in data set [3] it was 21 nM.
With `Cn1cnc(-c2cc3nccc(Oc4ccc(NC(=O)C5(C(=O)Nc6ccccc6)CC5)cc4F)c3s2)c1`, the values for the IC50 in data set [1], in data set [2] and in data set [3] were 9 nM, 60 nM and 28 nM, respectively.
For `CCn1cnc(-c2cc3nccc(Oc4ccc(NC(=O)N5CCN(c6ccccc6OC)C5=O)cc4F)c3s2)c1`, the concentration for half-maximal inhibition (IC50) in data set [1] was 14 nM; in [2] it was 60 nM; in [3], 26 nM.
The compound `Cn1cnc(-c2cc3nccc(Oc4ccc(NC(=S)NC(=O)Cc5ccccc5)cc4F)c3s2)c1` had a half-life in [4] of 1.2 h. For the same compound, the IC50 in [1] was 26 nM.
As to `CC(C)n1cnc(-c2cc3nccc(Oc4ccc(NC(=O)C5CCN(c6ccccc6)C5=O)cc4F)c3s2)c1` (stereo not drawn), the IC50 in data set [1] worked out at 16 nM; in data set [2], 210 nM; in data set [3], 39 nM.
Turning to `Cn1cnc(-c2cc3nccc(Oc4ccc(NC(=S)N5CCN(c6ccccc6)C5=O)cc4F)c3s2)c1`, the IC50 was 12 nM in data set [1], 80 nM in [2] and 24 nM in [3].
`Cn1cnc(-c2cc3nccc(Oc4ccc(NC(=O)C5CCN(c6ccccc6)C5=O)cc4F)c3s2)c1` (stereo not drawn) yielded a bioavailability in data set [5] of 14%. In data set [4], the half-life is 1.1 h. Moreover, the concentration for half-maximal inhibition (IC50) in data set [1] was 39 nM; in data set [2], 370 nM; in data set [3] it was 35 nM.
As to `CN1CC=C(c2cc3nccc(Oc4ccc(NC(=O)N5CCN(c6ccccc6)C5=O)cc4F)c3s2)CC1`, the concentration for half-maximal inhibition (IC50) in data set [1] was 170 nM; in data set [2], 300 nM; in data set [3], 33 nM.
With `CC(C)n1cnc(-c2cc3nccc(Oc4ccc(NC(=O)C5CC(=O)N(c6ccccc6)C5)cc4F)c3s2)c1` (stereo not drawn), the concentration for half-maximal inhibition (IC50) in data set [1] amounted to 800 nM; in data set [3], 300 nM.
In the case of `O=C(Nc1ccc(Oc2ccnc3cc(-c4ccc(CN5CCNCC5)cc4)sc23)c(F)c1)N1CCN(c2ccccc2)C1=O`, the 50% inhibitory concentration (IC50) in data set [1] was 11 nM; in [2], 420 nM; in data set [3], 22 nM.
`O=C(Nc1ccc(Oc2ccnc3cc(-c4cn(CCN5CCCC5)cn4)sc23)c(F)c1)N1CCN(c2ccccc2)C1=O`: the values for the IC50 in data set [1], in [2] and in [3] were 20 nM, 320 nM and 35 nM, respectively.
For the compound `CN(C)CCn1cnc(-c2cc3nccc(Oc4ccc(NC(=O)N5CCN(c6ccccc6)C5=O)cc4F)c3s2)c1`, the concentration for half-maximal inhibition (IC50) in data set [1] came out at 14 nM; in data set [2], 60 nM; in data set [3], 34 nM.
In the case of `CN(C)[C@H]1CCN(C(=O)c2cc3nccc(Oc4ccc(NC(=O)N5CCN(c6ccccc6)C5=O)cc4F)c3s2)C1`, the concentration for half-maximal inhibition (IC50) was 23 nM in data set [1], 230 nM in data set [2] and 42 nM in data set [3].
As to `Cn1cnc(-c2cc3nccc(Oc4ccc(NC(=O)N5CCN(c6ccccc6)C5=S)cc4F)c3s2)c1`, the IC50 in data set [1] was 1800 nM; in data set [2], more than 10000 nM; in data set [3], 2000 nM.
The corresponding values for `Cn1ccnc1-c1cc2nccc(Oc3ccc(NC(=O)N4CCN(c5ccccc5)C4=O)cc3F)c2s1` are 31 nM, 120 nM and 26 nM.
With `CN1CCN(Cc2ccc(-c3cc4nccc(Oc5ccc(NC(=O)N6CCN(c7ccccc7)C6=O)cc5F)c4s3)cc2)CC1`, the figures for the IC50 in data set [1], in [2] and in data set [3] were 12 nM, 250 nM and 29 nM, respectively.
Compound `Cn1cnc(-c2cc3nccc(Oc4ccc(NC(=O)N5CCN(c6ccccc6)C5=O)cc4F)c3s2)c1` had a bioavailability in [5] of 13%. This compound also had a half-life in data set [4] of 2.3 h. For the same compound, the IC50 in data set [1] worked out at 8 nM.
Turning to `CN(C(=O)CC(=O)Nc1ccc(Oc2ccnc3cc(-c4cn(C)cn4)sc23)c(F)c1)c1ccccc1`, the results for the IC50 in data set [1], in [2] and in data set [3] were 10 nM, 160 nM and 43 nM, respectively.
On to `CCn1cnc(-c2cc3nccc(Oc4ccc(NC(=O)N5CCN(c6ccccc6)C5=O)cc4F)c3s2)c1`, for which the concentration for half-maximal inhibition (IC50) in [1] turned out to be 12 nM; in data set [2] it was 40 nM; in data set [3], 25 nM.
Consider `Cn1cnc(-c2cc3nccc(Oc4ccc(NC(=O)NC(=O)Cc5ccccc5)cc4F)c3s2)c1`, for which the concentration for half-maximal inhibition (IC50) in data set [1] stood at 37 nM; in data set [3] it was 25 nM.
With `O=C(Nc1ccc(Oc2ccnc3cc(-c4cn(CCCN5CCCC5)cn4)sc23)c(F)c1)N1CCN(c2ccccc2)C1=O`, the 50% inhibitory concentration (IC50) amounted to 8 nM in data set [1], 300 nM in [2] and 21 nM in data set [3].
With `Cn1cnc(-c2cc3nccc(Oc4ccc(NC(=O)C5(C)CCN(c6ccccc6)C5=O)cc4F)c3s2)c1` (stereo not drawn), the IC50 in data set [1] came out at 230 nM; in data set [2], 1000 nM; in data set [3], 67 nM.
For the compound `CCn1cnc(-c2cc3nccc(Oc4ccc(NC(=O)N5CCN(c6ccc(F)cc6)C5=O)cc4F)c3s2)c1`, the inhibition in data set [6] is 100%; in [7] it was 99%; in [8], 80%; in data set [9], 9%; in data set [11], 99%; in data set [17] it was 99%. Further, the outcome in the data set on MKN-45 [10] was Active. For the same compound, the IC50 in the data set on HUVEC [12] amounted to 6 nM; in data set [1], 7 nM; with HUVEC [13] it was 6 nM; in data set [14], 1 nM; in the data set on MKN-45 [16], 10 nM; in the data set on HOS-TE85 it was 33 nM. For the same compound, the IC50 was 13000 nM in the data set on HCT-116, 20000 nM with MDA-MB-231, 50 nM in data set [2] and 27 nM in [3]. In [5], this compound returned a bioavailability of 37%. This compound also had a half-life in data set [4] of 6.3 h. Moreover, the inhibition at 0.1 µM with HUVEC [15] was found to be 98%.
As for `CCn1ccnc1-c1cc2nccc(Oc3ccc(NC(=O)N4CCN(c5ccccc5)C4=O)cc3F)c2s1`, the IC50 in [1] was determined as 26 nM; in data set [2], 140 nM; in data set [3] it was 24 nM.
Turning to `CN1CCN(CCN(C)Cc2ccc(-c3cc4nccc(Oc5ccc(NC(=O)N6CCN(c7ccccc7)C6=O)cc5F)c4s3)cc2)CC1`, the half-inhibitory concentration (IC50) in data set [1] amounted to 3 nM; in data set [2] it was 830 nM; in data set [3], 28 nM.
As for `CN(C(=O)C1(C(=O)Nc2ccc(Oc3ccnc4cc(-c5cn(C)cn5)sc34)c(F)c2)CC1)c1ccccc1`, the IC50 in [1] came out at 57 nM; in [2], 1440 nM; in data set [3], 1000 nM.
Consider `CC(=O)c1cccc(-c2cc3nccc(Oc4ccc(NC(=O)N5CCN(c6ccccc6)C5=O)cc4F)c3s2)c1`, for which the half-inhibitory concentration (IC50) amounted to 880 nM in data set [1], 270 nM in data set [2] and 200 nM in [3].
As to `CNC(=O)N1CCN(Cc2ccc(-c3cc4nccc(Oc5ccc(NC(=O)N6CCN(c7ccccc7)C6=O)cc5F)c4s3)cc2)CC1`, the IC50 in [1] came to 8 nM; in [2], 80 nM; in data set [3], 16 nM.
Consider `Cn1cnc(-c2cc3nccc(Oc4ccc(NC(=O)CC(=O)Nc5ccccc5)cc4F)c3s2)c1`, for which the IC50 is 15 nM in data set [1], 310 nM in data set [2] and 28 nM in data set [3].

For orientation: IC50 means the concentration that inhibits the measured activity by half. What is called half-life is how long it takes for the measured level to halve. High values mean slow loss, low ones fast loss. The bioavailability is the share of a dose that reaches the circulation, judged against a reference dose that is usually intravenous. What is called inhibition is how much of the control response was suppressed.
